Reference: patent US8349805B2, “Use of Gonadorelin as a therapeutic agent” (priority 2007, dated 2013)
Ends that are not written are not given here.

Test system: drug-resistant Mycobacterium tuberculosis
Details: 10 micrograms per ml; seven days at 37° C.; strain resistant to PAS, streptomycin and isoniazid

Molecule	inhibition of the growth of Mycobacterium tuberculosis
CC(C)C[C@H](NC(=O)CNC(=O)[C@H](Cc1ccc(O)cc1)NC(=O)[C@H](CO)NC(=O)[C@H](Cc1c[nH]c2ccccc12)NC(=O)[C@H](Cc1cnc[nH]1)NC(=O)[C@@H]1CCC(=O)N1)C(=O)N[C@@H](CCCNC(=N)N)C(=O)N1CCC[C@H]1C(=O)NCC(N)=O [Peptide 1]	100%
Met-Gln-Met-Lys-Lys-Val-Leu-Asp-Ser-OH (MQMKKVLDS-OH) [Peptide 2]	100%
